Three compounds from patent US10166236B2, “Pharmaceutical formulations comprising substituted pyrazolo[5,1-c]pyrido[4,3-e][1,2,4]triazines for treating lysosomal storage disorders” (Perlara PBC, priority 2016, dated 2019) can be followed below.

The test system of assay [1] is Coriell GM18453 (I1061T/I1061T) cells. As to the kind of experiment: Filipin staining of cholesterol in NPC patient fibroblasts. It counts as cell-based, human. Conditions: 10 μM; for amount of cytoplasmic free/unesterified cholesterol as visualized by filipin staining, relative to vehicle control: 48 hr incubation, FIG. 1. The method, then: Compound 1 was tested in vitro for its effect on cholesterol localization in NPC fibroblasts. The following experiments utilized Coriell GM18453 (I1061T/I1061T) cells which are immortalized cell lines prepared from NPC patient fibroblasts. These cells have a known deficiency in cholesterol esterification. Compound 1 (FIG. 1B), U18666A (positive control, FIG. 1C), and DMSO (vehicle control, FIG. 1A) were individually dispensed into 96 well In Vitro Scientific glass bottom black walled plates using the Echo acoustic liquid handler for the final concentrations indicated. Cells were suspended in media (DMEM, 5% FBS, 1% P/S, 2 mM L-glutamine) and then added to each well at 1750 cells per well. The final concentration of Compound 1 and […] was 10 μM. After a 48 hr incubation cells were fixed and stained with filipin using components from the Cholesterol Cell Based Detection Kit from Cayman. Filipin was used at a final concentration of 50 μg/mL. Cells were imaged using the ImageXpress from Molecular Devices and analyzed with MetaXpress. […] The experiment was repeated in GM18453 cells except that filipin staining was assessed in one set of wells every 24 hours for a total of five days. FIG. 2A provides an exemplary photomicrograph of a cells treated with vehicle control. There were no notable changes to the filipin staining of the vehicle-treated over the five day culture period, FIG. 2B-2F are representative photomicrographs of the Compound 1-treated cells after 1-5 days in culture, respectively.

Another assay concerns NPC1 null worms. As to the kind of experiment: Egg count in NPC1 null nematodes (rescue of nematode model of NPC). It counts as in vivo, C. elegans. The note with it: Day 1 adults; for number of eggs per adult worm relative to DMSO control or SAHA: with or without supplemental cholesterol, p<0.001 relative to DMSO, Student's t-test. The method, then: This experiment tested the ability of Compound 1 to rescue NPC-1 null nematodes. A population of NPC1 null worms was scaled up on large petri plates (100 mm or 60 mm) to produce a large population of gravid adults. One day prior to assay, the adult worms were bleached to obtain all eggs. Eggs were allowed to hatch overnight in M9 by rocking tubes. On day of assay, the presence of L1 larvae was confirmed. A lawn of HB101 bacteria were grown on NGM agar plates (4 ml). The plates were prepared either with or without exogenous cholesterol. […] An additional set of plates prepared with 25% cremaphor alone was used as a second vehicle control. Fifty to seventy L1 larvae were added to each plate and incubated at room temperature for two days. On day 3, L1 worms had matured into Day 1 adults bearing row of eggs. Eggs were counted microscopically and the average number of eggs per adult worm for each incubation condition was calculated. […] There was no statistically significant difference between treatment with DMSO control in the 25% cremaphor carrier relative to the carrier alone (data not shown).

For `CN(C)CCCn1ccc2c(nnc3c(-c4ccc(F)cc4)cnn32)c1=O` [Compound 1, 11-[3-(Dimethylamino)propyl]-5-(p-fluorophenyl)-2.3.7.8.11-pentazatricyclo[7.4.0.0^2,6]trideca-1(9),3,5,7,12-pentaen-10-one], in assay [1], the “amount of cytoplasmic free/unesterified cholesterol as visualized by filipin staining, relative to vehicle control” value is given as “increase in the amount of cytoplasmic free/unesterified cholesterol”. In addition, the “amount of cytoplasmic free/unesterified cholesterol (filipin staining), time course” value in assay [1] (assessed every 24 hours for five days, FIG. 2) is “Increases in the amount of cytoplasmic free/unesterified cholesterol were observed after a 24 hour culture period and the effect was sustained throughout the five day study period”. In addition, the “number of eggs per adult worm relative to DMSO control or SAHA” value with NPC1 null worms (25 μM, FIG. 3C) is “statistically significant increase in the number of eggs per adult worm”.
Consider cyclodextrin, for which the “number of eggs per adult worm relative to DMSO control or SAHA” value with NPC1 null worms (0.5%, FIG. 3E) is “statistically significant increase in the number of eggs per adult worm”.
`CCN(CC)CCO[C@H]1CC[C@@]2(C)C(=CC[C@@H]3[C@@H]2CC[C@]2(C)C(=O)CC[C@@H]32)C1` [Compound U18666A]: the “amount of cytoplasmic free/unesterified cholesterol as visualized by filipin staining, relative to vehicle control” value in assay [1] is reported as “increase in the amount of cytoplasmic free/unesterified cholesterol”. For the same compound, the “egg laying deficit of NPC null nematodes (eggs per adult worm)” value in the assay on NPC1 null worms (75 μM, FIG. 3B) was “significantly exacerbates the egg laying deficit”.
